Data from article PMC6934184, “Selective DNA-PKcs inhibition extends the therapeutic index of localized radiotherapy and chemotherapy” (The Journal of Clinical Investigation, 2019).

Molecular target: T1, DYRK1B (Homo sapiens, UniProt Q9Y463)
T1 construct: purchased Thermo Fisher Scientific (Life Technologies) SelectScreen
Assay: SelectScreen Z'LYTE
Format: biochemical
Summary of the method: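 SelectScreen broad panel; activity (Z'LYTE, Adapta) plus binding formats. ATP: Km app for CSF1R Z'LYTE; 10 for CAMK1 Adapta. Readout = % per kinase.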

T1 sequence (Q9Y463 whole entry): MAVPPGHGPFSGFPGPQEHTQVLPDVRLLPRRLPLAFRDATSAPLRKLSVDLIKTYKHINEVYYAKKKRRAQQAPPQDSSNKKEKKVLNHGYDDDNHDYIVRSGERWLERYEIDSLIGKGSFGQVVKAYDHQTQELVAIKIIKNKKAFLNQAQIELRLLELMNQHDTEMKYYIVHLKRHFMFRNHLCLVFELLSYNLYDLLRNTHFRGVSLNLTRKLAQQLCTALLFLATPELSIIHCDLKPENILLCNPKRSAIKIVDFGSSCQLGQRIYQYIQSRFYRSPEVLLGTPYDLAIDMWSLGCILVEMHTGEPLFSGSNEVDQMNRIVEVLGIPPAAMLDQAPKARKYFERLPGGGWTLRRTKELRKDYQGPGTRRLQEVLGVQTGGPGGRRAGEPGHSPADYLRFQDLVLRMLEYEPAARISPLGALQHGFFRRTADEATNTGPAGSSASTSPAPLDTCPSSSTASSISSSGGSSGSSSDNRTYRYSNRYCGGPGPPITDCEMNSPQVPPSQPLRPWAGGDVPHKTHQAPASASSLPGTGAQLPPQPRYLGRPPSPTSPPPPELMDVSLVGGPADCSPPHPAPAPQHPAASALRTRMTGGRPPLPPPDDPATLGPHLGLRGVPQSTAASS

SMILES: CN(C(=O)CN1CCOCC1)c1ccc2sc3c(-c4cccc5c(=O)cc(N6CC7CCC(C6)O7)oc45)cccc3c2c1 [NU5455]
- inhibition at 1 µM: -1.8%
